From patent US20130040944A1, “MGLUR4 ALLOSTERIC POTENTIATORS, COMPOSITIONS, AND METHODS OF TREATING NEUROLOGICAL DYSFUNCTION” (VANDERBILT UNIVERSITY, priority 2009, published 2013)

Target: human mGluR4 (Homo sapiens, UniProt Q14833)
Assay: potentiation of human mGluR4 in transfected CHO cells, Ca2+-sensitive dye fluorescence, EC20 agonist
Conditions: hEC50, human mGluR4 potentiation; unit inferred

Sequence of human mGluR4 (Q14833 33-912): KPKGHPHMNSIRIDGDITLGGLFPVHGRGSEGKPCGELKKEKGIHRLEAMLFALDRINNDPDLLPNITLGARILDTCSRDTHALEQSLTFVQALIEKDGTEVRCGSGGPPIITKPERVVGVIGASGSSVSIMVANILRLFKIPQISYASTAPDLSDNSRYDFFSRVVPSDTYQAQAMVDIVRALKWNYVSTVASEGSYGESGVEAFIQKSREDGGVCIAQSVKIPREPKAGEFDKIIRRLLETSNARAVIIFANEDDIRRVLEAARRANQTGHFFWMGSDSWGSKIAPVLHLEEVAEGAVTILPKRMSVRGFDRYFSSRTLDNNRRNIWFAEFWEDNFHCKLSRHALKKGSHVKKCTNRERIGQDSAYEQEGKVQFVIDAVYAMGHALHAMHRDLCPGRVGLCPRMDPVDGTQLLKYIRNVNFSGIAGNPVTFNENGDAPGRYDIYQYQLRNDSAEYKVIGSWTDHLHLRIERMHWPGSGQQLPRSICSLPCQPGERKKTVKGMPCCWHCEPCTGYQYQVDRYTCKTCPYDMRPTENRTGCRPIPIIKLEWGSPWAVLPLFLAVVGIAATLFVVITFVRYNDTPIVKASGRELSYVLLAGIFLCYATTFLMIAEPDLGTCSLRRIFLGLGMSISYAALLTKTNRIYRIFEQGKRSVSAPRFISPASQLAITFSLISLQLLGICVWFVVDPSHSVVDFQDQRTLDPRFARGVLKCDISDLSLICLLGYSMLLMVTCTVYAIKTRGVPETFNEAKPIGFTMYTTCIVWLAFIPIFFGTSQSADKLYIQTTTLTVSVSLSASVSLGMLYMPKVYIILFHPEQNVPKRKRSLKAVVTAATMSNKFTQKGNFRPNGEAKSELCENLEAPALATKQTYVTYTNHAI

Row | SMILES | EC50 [µM]
1 | Cc1cccc(C)c1S(=O)(=O)n1ccc(NC(=O)c2ccco2)c1 [Example 67, N-(1-((2,6-dimethylphenyl)sulfonyl)-1H-pyrrol-3-yl)furan-2-carboxamide] | 6.13
2 | O=C(Nc1ccn(S(=O)(=O)Cc2ccc(Br)cc2)c1)c1ccccn1 [Example 70, N-(1-((4-bromobenzyl)sulfonyl)-1H-pyrrol-3-yl)picolinamide] | 0.144
3 | COc1ccccc1S(=O)(=O)n1ccc(NC(=O)c2ccccn2)c1 [Example 72, N-(1-((2-methoxyphenyl)sulfonyl)-1H-pyrrol-3-yl)picolinamide] | 2.06
4 | O=C(Nc1ccn(S(=O)(=O)c2ccccc2OC(F)F)c1)c1ccccn1 [Example 73, N-(1-((2-(difluoromethoxy)phenyl)sulfonyl)-1H-pyrrol-3-yl)picolinamide] | 0.57
5 | Cc1ccc(S(=O)(=O)n2ccc(NC(=O)c3ccccn3)c2)c(C)c1 [Example 74, N-(1-((2,4-dimethylphenyl)sulfonyl)-1H-pyrrol-3-yl)picolinamide] | 0.88
6 | Cc1ccc(S(=O)(=O)n2ccc(NC(=O)c3ccccn3)c2)cc1F [Example 75, N-(1-((3-fluoro-4-methylphenyl)sulfonyl)-1H-pyrrol-3-yl)picolinamide] | 0.104
7 | Cc1cccc(Cl)c1S(=O)(=O)n1ccc(NC(=O)c2ccccn2)c1 [Example 76, N-(1-((2-chloro-6-methylphenyl)sulfonyl)-1H-pyrrol-3-yl)picolinamide] | 0.988
8 | Cc1cc(S(=O)(=O)n2ccc(NC(=O)c3ccccn3)c2)ccc1F [Example 77, N-(1-((4-fluoro-3-methylphenyl)sulfonyl)-1H-pyrrol-3-yl)picolinamide] | 0.396
9 | O=C(Nc1ccn(S(=O)(=O)c2cc(Cl)ccc2Cl)c1)c1ccccn1 [Example 78, N-(1-((2,5-dichlorophenyl)sulfonyl)-1H-pyrrol-3-yl)picolinamide] | 0.0576
10 | N#Cc1ccccc1S(=O)(=O)n1ccc(NC(=O)c2ccccn2)c1 [Example 79, N-(1-((2-cyanophenyl)sulfonyl)-1H-pyrrol-3-yl)picolinamide] | 0.489
11 | O=C(Nc1ccn(S(=O)(=O)c2ccc(F)c(F)c2)c1)c1nccs1 [Example 80, N-(1-((3,4-difluorophenyl)sulfonyl)-1H-pyrrol-3-yl)thiazole-2-carboxamide] | 1.27
12 | Cc1ccc(C)c(S(=O)(=O)n2ccc(NC(=O)c3ccccn3)c2)c1 [Example 81, N-(1-((2,5-dimethylphenyl)sulfonyl)-1H-pyrrol-3-yl)picolinamide] | 0.228
13 | Cc1ccc(S(=O)(=O)n2ccc(NC(=O)c3ccccn3)c2)cc1C [Example 82, N-(1-((3,4-dimethylphenyl)sulfonyl)-1H-pyrrol-3-yl)picolinamide] | 0.139
14 | Cc1cc(S(=O)(=O)n2ccc(NC(=O)c3ccccn3)c2)ccc1Cl [Example 83, N-(1-((4-chloro-3-methylphenyl)sulfonyl)-1H-pyrrol-3-yl)picolinamide] | 0.447
15 | O=C(Nc1ccn(S(=O)(=O)Cc2cccc(F)c2)c1)c1nccs1 [Example 84, N-(1-((3-fluorobenzyl)sulfonyl)-1H-pyrrol-3-yl)thiazole-2-carboxamide] | 4.8
16 | O=C(Nc1ccn(S(=O)(=O)c2cccc(C(F)(F)F)c2)c1)c1ccccn1 [Example 85, N-(1-((3-(trifluoromethyl)phenyl)sulfonyl)-1H-pyrrol-3-yl)picolinamide] | 1.62
17 | O=C(Nc1ccn(S(=O)(=O)Cc2ccccc2Cl)c1)c1ccc(Cl)cn1 [Example 86, 5-chloro-N-(1-((2-chlorobenzyl)sulfonyl)-1H-pyrrol-3-yl)picolinamide] | 7.22

Row | SMILES | EC50 [µM]
18 | Cc1cc(F)ccc1S(=O)(=O)n1ccc(NC(=O)c2ccccn2)c1 [Example 87, N-(1-((4-fluoro-2-methylphenyl)sulfonyl)-1H-pyrrol-3-yl)picolinamide] | 0.111
19 | COc1cccc(S(=O)(=O)n2ccc(NC(=O)c3ccccn3)c2)c1 [Example 88, N-(1-((3-methoxyphenyl)sulfonyl)-1H-pyrrol-3-yl)picolinamide] | 0.23
20 | Cc1ccc(F)c(S(=O)(=O)n2ccc(NC(=O)c3ccccn3)c2)c1 [Example 89, N-(1-((2-fluoro-5-methylphenyl)sulfonyl)-1H-pyrrol-3-yl)picolinamide] | 0.281
21 | O=C(Nc1ccn(S(=O)(=O)c2cccc(F)c2)c1)c1ccccn1 [Example 90, N-(1-((3-fluorophenyl)sulfonyl)-1H-pyrrol-3-yl)picolinamide] | 0.178
22 | O=C(Nc1ccn(S(=O)(=O)Cc2cccc(F)c2)c1)c1ccco1 [Example 91, N-(1-((3-fluorobenzyl)sulfonyl)-1H-pyrrol-3-yl)furan-2-carboxamide] | 6.76
23 | O=C(Nc1ccn(S(=O)(=O)Cc2c(F)cccc2F)c1)c1ccccn1 [Example 92, N-(1-((2,6-difluorobenzyl)sulfonyl)-1H-pyrrol-3-yl)picolinamide] | 0.153
24 | O=C(Nc1ccn(S(=O)(=O)Cc2c(F)cccc2F)c1)c1nccs1 [Example 93, N-(1-((2,6-difluorobenzyl)sulfonyl)-1H-pyrrol-3-yl)thiazole-2-carboxamide] | 0.343
25 | CC(C)(C)OC(=O)C(c1ccccc1)S(=O)(=O)n1ccc(NC(=O)c2ccccn2)c1 (stereo not shown) [Example 94, tert-butyl 2-phenyl-2-((3-(picolinamido)-1H-pyrrol-1-yl)sulfonyl)acetate] | 14.5
26 | O=C(Nc1ccn(S(=O)(=O)Cc2ccc(Cl)cc2)c1)c1ccccn1 [Example 95, N-(1-((4-chlorobenzyl)sulfonyl)-1H-pyrrol-3-yl)picolinamide] | 0.336
27 | CC(c1ccccc1)S(=O)(=O)n1ccc(NC(=O)c2ccccn2)c1 (stereo not shown) [Example 96, N-(1-((1-phenylethyl)sulfonyl)-1H-pyrrol-3-yl)picolinamide] | 2.3
28 | Cc1ccc(C(=O)Nc2ccn(S(=O)(=O)Cc3ccc(Cl)cc3)c2)nc1 [Example 97, N-(1-((4-chlorobenzyl)sulfonyl)-1H-pyrrol-3-yl)-5-methylpicolinamide] | 0.431
29 | O=C(Nc1ccn(S(=O)(=O)Cc2c(Cl)cccc2Cl)c1)c1ccccn1 [Example 98, N-(1-((2,6-dichlorobenzyl)sulfonyl)-1H-pyrrol-3-yl)picolinamide] | 0.119
30 | O=C(Nc1ccn(S(=O)(=O)c2ccc(Cl)c(Cl)c2)c1)c1ccccn1 [Example 100, N-(1-((3,4-dichlorophenyl)sulfonyl)-1H-pyrrol-3-yl)picolinamide] | 0.466
31 | COc1ccc(S(=O)(=O)n2ccc(NC(=O)c3ccccn3)c2)cc1OC [Example 101, N-(1-((3,4-dimethoxyphenyl)sulfonyl)-1H-pyrrol-3-yl)picolinamide] | 5.73
32 | O=C(Nc1ccn(S(=O)(=O)c2ccc(Cl)c(C(F)(F)F)c2)c1)c1ccccn1 [Example 102, N-(1-((4-chloro-3-(trifluoromethyl)phenyl)sulfonyl)-1H-pyrrol-3-yl)picolinamide] | 5.12
33 | O=C(Nc1ccn(S(=O)(=O)c2ccc(Cl)c(F)c2)c1)c1ccccn1 [Example 103, N-(1-((4-chloro-3-fluorophenyl)sulfonyl)-1H-pyrrol-3-yl)picolinamide] | 0.389
34 | O=C(Nc1ccn(S(=O)(=O)c2ccc(C(F)(F)F)c(F)c2)c1)c1ccccn1 [Example 104, N-(1-((3-fluoro-4-(trifluoromethyl)phenyl)sulfonyl)-1H-pyrrol-3-yl)picolinamide] | 4.02
